The results in this text go back to patent US20170101383A1, “DIAMINOTRIAZINE DERIVATIVES AS HERBICIDES” (BASF SE, priority 2014, published 2017).

What all share (format): in vivo
Test [1] has as its system Setaria faberi. Nature of the test: greenhouse post-emergence treatment, SETFA. The following applies: 1.000 kg/ha, scale 0 to 100. From the text: (§1) The seeds of the test plants were sown separately for each species. For the post-emergence treatment, the test plants were first grown to a height of 3 to 15 cm, depending on the plant habit, and only then treated with the active ingredients which had been suspended or emulsified in water. For this purpose, the test plants were either sown directly and grown in the same containers, or they were first grown separately as seedlings and transplanted into the test containers a few days prior to treatment. Depending on the species, the plants were kept at 10-25° C. or 20-35° C., respectively. The test period extended over 2 to 4 weeks. During this time, the plants were tended, and their response to the individual treatments was evaluated. Evaluation was carried out using a scale from 0 to 100. 100 means no emergence of the plants, or complete destruction of at least the aerial moieties, and 0 means no damage, or normal course of growth. A moderate herbicidal activity is given at values of at least 60, a good herbicidal activity is given at values of at least 70, and a very good herbicidal activity is given at values of at least 85. The plants used in the greenhouse experiments were of the following species: [table]

Test [2] deals with Apera spica-venti. Briefly: greenhouse pre-emergence treatment, APESV. The following applies: 0.500 kg/ha, scale 0 to 100. The source says:
(§2) The seeds of the test plants were sown separately for each species. For the pre-emergence treatment, the active ingredients, which had been suspended or emulsified in water, were applied directly after sowing by means of finely distributing nozzles. The containers were irrigated gently to promote germination and growth and subsequently covered with transparent plastic hoods until the plants had rooted. This cover caused uniform germination of the test plants, unless this had been impaired by the active ingredients. Depending on the species, the plants were kept at 10-25° C. or 20-35° C., respectively. The test period extended over 2 to 4 weeks. During this time, the plants were tended, and their response to the individual treatments was evaluated. Evaluation was carried out using a scale from 0 to 100. 100 means no emergence of the plants, or complete destruction of at least the aerial moieties, and 0 means no damage, or normal course of growth. A moderate herbicidal activity is given at values of at least 60, a good herbicidal activity is given at values of at least 70, and a very good herbicidal activity is given at values of at least 85. The plants used in the greenhouse experiments were of the following species: [table]

The next test concerns Abutilon theophrasti. Briefly: greenhouse post-emergence treatment, ABUTH. As to conditions: 1.000 kg/ha, scale 0 to 100.
Text: as §1

Test [3] relates to Setaria faberi. Briefly: greenhouse pre-emergence treatment, SETFA. As to conditions: 0.500 kg/ha, scale 0 to 100.
Text: as §2

Test [4] deals with Amaranthus retroflexus. Nature of the test: greenhouse post-emergence treatment, AMARE. As to conditions: for pest or weed control at 1000 g/ha: Amaranthus retroflexus, 1.000 kg/ha, scale 0 to 100, read-out: herbicidal activity against AMARE.
Text: as §1

Another test deals with Alopecurus myosuroides. Briefly: greenhouse pre-emergence treatment, ALOMY. The following applies: 0.500 kg/ha, scale 0 to 100.
Text: as §2

In test [5] the test system is Amaranthus retroflexus. Nature of the test: greenhouse pre-emergence treatment, AMARE. As to conditions: 0.500 kg/ha, scale 0 to 100.
Text: as §2

For test [6], the system named is Apera spica-venti. Nature of the test: greenhouse post-emergence treatment, APESV. The following applies: 0.500 kg/ha, scale 0 to 100.
Text: as §1

For the compound `Nc1nc(Nc2c(F)c(F)c(F)c(F)c2F)nc(N2CCCC2)n1` [Example 6], the “herbicidal activity against SETFA” value with Setaria faberi [1] and in the test with Setaria faberi [3] was “very good (a very good herbicidal activity is given at values of at least 85)” throughout. Also, in the test on Apera spica-venti [2], the “herbicidal activity against APESV” value is given as “very good (a very good herbicidal activity is given at values of at least 85)”. Further, in the test on Abutilon theophrasti, the “herbicidal activity against ABUTH” value is recorded as “very good (a very good herbicidal activity is given at values of at least 85)”. In the test with Amaranthus retroflexus [4], the pest or weed control at 1000 g/ha was at least 85%. Also, the “herbicidal activity against ALOMY” value in the test on Alopecurus myosuroides is on record as “very good (a very good herbicidal activity is given at values of at least 85)”.
Consider `Nc1nc(Nc2c(F)c(F)c(F)c(F)c2F)nc(N2CCCCCC2)n1` [Example 7], for which, in the test on Apera spica-venti [2], the “herbicidal activity against APESV” value was “good to very good”. The “herbicidal activity against ABUTH” value with Abutilon theophrasti was “very good (a very good herbicidal activity is given at values of at least 85)”. In the test on Setaria faberi [3], the “herbicidal activity against SETFA” value is listed as “good to very good”. Also, in the test on Amaranthus retroflexus [4], the pest or weed control at 1000 g/ha was at least 85%. The “herbicidal activity against ALOMY” value with Alopecurus myosuroides is given as “good to very good”.
Take `CN(Cc1ccccc1)c1nc(N)nc(Nc2c(F)c(F)c(F)c(F)c2F)n1` [Example 10]: in the test with Abutilon theophrasti, the “herbicidal activity against ABUTH” value is recorded as “very good (a very good herbicidal activity is given at values of at least 85)”. For the same compound, the pest or weed control at 1000 g/ha in the test on Amaranthus retroflexus [4] was at least 85%.
Regarding `CC1CCC(C)N1c1nc(N)nc(Nc2c(F)c(F)c(F)c(F)c2F)n1` (centres unmarked) [Example 17], the “herbicidal activity against APESV” value in the test on Apera spica-venti [2] is “very good (a very good herbicidal activity is given at values of at least 85)”. The “herbicidal activity against AMARE” value in the test with Amaranthus retroflexus [5] is reported as “very good (a very good herbicidal activity is given at values of at least 85)”. Further, in the test with Setaria faberi [3], the “herbicidal activity against SETFA” value is reported as “very good (a very good herbicidal activity is given at values of at least 85)”.
Consider `CC1CCCN1c1nc(N)nc(Nc2c(F)c(F)c(F)c(F)c2F)n1` (centres unmarked) [Example 20], for which the “herbicidal activity against APESV” value in the test on Apera spica-venti [2] is given as “very good (a very good herbicidal activity is given at values of at least 85)”. Also, the “herbicidal activity against AMARE” value with Amaranthus retroflexus [5] is reported as “very good (a very good herbicidal activity is given at values of at least 85)”. In addition, the “herbicidal activity against SETFA” value in the test with Setaria faberi [3] is on record as “very good (a very good herbicidal activity is given at values of at least 85)”.
Consider `CC1CCCN1c1nc(N)nc(Nc2c(F)c(F)cc(F)c2F)n1` (centres unmarked) [Example 21], for which the “herbicidal activity against AMARE” value in the test with Amaranthus retroflexus [5] is listed as “very good (a very good herbicidal activity is given at values of at least 85)”. Besides, the “herbicidal activity against SETFA” value in the test with Setaria faberi [3] is “very good (a very good herbicidal activity is given at values of at least 85)”. Further, the “herbicidal activity against ALOMY” value in the test with Alopecurus myosuroides is reported as “very good (a very good herbicidal activity is given at values of at least 85)”.
Regarding `CCN(C)c1nc(N)nc(Nc2c(F)c(F)cc(F)c2F)n1` [Example 22], the “herbicidal activity against APESV” value in the test on Apera spica-venti [2] is given as “very good (a very good herbicidal activity is given at values of at least 85)”. Further, in the test with Amaranthus retroflexus [5], the “herbicidal activity against AMARE” value was “very good (a very good herbicidal activity is given at values of at least 85)”. The “herbicidal activity against ALOMY” value with Alopecurus myosuroides is on record as “very good (a very good herbicidal activity is given at values of at least 85)”.
For the compound `COC[C@@H]1CCCN1c1nc(N)nc(Nc2c(F)c(F)c(F)c(F)c2F)n1` [Example 29], the “herbicidal activity against APESV” value in the test with Apera spica-venti [2] and in the test with Apera spica-venti [6] was “very good (a very good herbicidal activity is given at values of at least 85)” each time. For the same compound, the “herbicidal activity against AMARE” value with Amaranthus retroflexus [5] is listed as “very good (a very good herbicidal activity is given at values of at least 85)”; in the test on Amaranthus retroflexus [4] (0.500 kg/ha, scale 0 to 100), “very good (a very good herbicidal activity is given at values of at least 85)”.
As to `COCC1CCCN1c1nc(N)nc(Nc2c(F)c(F)c(F)c(F)c2F)n1` (centres unmarked) [Example 31], the results for the “herbicidal activity against APESV” value in the test with Apera spica-venti [2] and in the test with Apera spica-venti [6] were “good to very good” and “very good (a very good herbicidal activity is given at values of at least 85)”, respectively. The “herbicidal activity against AMARE” value in the test on Amaranthus retroflexus [5] is on record as “good to very good”.
